BigSolDB 2.1

COC(=O)C1=C(C)NC(C)=C(C(=O)OCC(C)C)C1c1ccccc1[N+](=O)[O-] (stereo not given)
solubility (mole fraction)
Details	in acetonitrile	in cyclohexane	in ethanol	in ethyl acetate	in isopropanol	in n-butanol	in n-propanol	in toluene	in water
278.15 K	0.00849	–	0.00278	0.0166	0.00467	0.00573	0.00378	0.00154	4e-06
283.15 K	0.0102	5.7e-05	0.00348	0.0188	0.00563	0.00671	0.00455	0.00183	5e-06
288.15 K	0.012	7.3e-05	0.0043	0.0215	0.00669	0.00795	0.00545	0.00218	7e-06
293.15 K	0.0144	9.1e-05	0.00529	0.0246	0.00796	0.00938	0.00657	0.0026	9e-06
298.15 K	0.0169	0.000111	0.00648	0.0278	0.00935	0.0111	0.0078	0.00309	1.2e-05
303.15 K	0.0197	0.000137	0.00789	0.0316	0.011	0.0129	0.00941	0.00366	1.5e-05
308.15 K	0.0232	0.000164	0.00935	0.0358	0.0129	0.0149	0.0111	0.00428	1.9e-05
313.15 K	0.0271	0.000198	0.0112	0.0401	0.0152	0.0173	0.013	0.005	2.4e-05
318.15 K	0.0317	0.000237	0.0134	0.0457	0.0178	0.0202	0.0155	0.00588	3e-05
